Test results reported in the supplement of paper PMC10307832.

Tests used:
Assay in all cases: relative viability (nuclei count vs DMSO), 5 days (fraction); higher = more cells survive
[1] = compound: Cn1cc(-c2cnc3ccc4ccc(CS(=O)(=O)NCc5ccccn5)cc4c(=O)c3c2)cn1 [MK-8033] + C[C@]1(O)C[C@@H](c2nc(-c3ccc4ccc(-c5ccccc5)nc4c3)c3c(N)nccn32)C1 [Linsitinib] (partner 1 µM)
Method in brief: (§1)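 Relative viability divides the nuclei count in treated wells by that in vehicle wells. Lung cancer cell lines were seeded in 1536-well plates, dosed by pin tool the next day, and fixed and stained after 5 days in one step with final 0.05% Triton X-100, 1% formaldehyde and 1 ug/ml Hoechst. Dosing was a single drug or a fixed anchor-drug dose plus five library-drug doses (not always all listed) in √10 steps, and values are medians of duplicate plates imaged at 4×.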

[2] = compound: CCc1c2c(nc3ccc(OC(=O)N4CCC(N5CCCCC5)CC4)cc13)-c1cc3c(c(=O)n1C2)COC(=O)[C@]3(O)CC [Irinotecan] + CS(=O)(=O)CCNCc1ccc(-c2ccc3ncnc(Nc4ccc(OCc5cccc(F)c5)c(Cl)c4)c3c2)o1 [Lapatinib] (partner 2 µM)
Method in brief: as §1

[3] = compound: Cn1cc(-c2cnc3ccc4ccc(CS(=O)(=O)NCc5ccccn5)cc4c(=O)c3c2)cn1 [MK-8033] + CC1(C)CCC(c2ccc(Cl)cc2)=C(CN2CCN(c3ccc(C(=O)NS(=O)(=O)c4ccc(N[C@H](CCN5CCOCC5)CSc5ccccc5)c(S(=O)(=O)C(F)(F)F)c4)cc3)CC2)C1 [Navitoclax] (partner 0.5 µM)
Method in brief: as §1

[4] = compound: CC[C@@H](C)CNCC(=O)N1CCC2=C([C@@H]1COC3=CC=CC(=C3)C)C=CS2 [RU-SKI 43] + CS(=O)(=O)N1CCN(Cc2cc3nc(-c4cccc5[nH]ncc45)nc(N4CCOCC4)c3s2)CC1 [Pictilisib] (partner 1 µM)
Method in brief: as §1

Row | Cell Line | relative viability ([1]; first compound 0.02 µM) | relative viability ([1]; first compound 0.06325 µM) | relative viability ([1]; first compound 0.2 µM) | relative viability ([1]; first compound 0.6325 µM) | relative viability ([1]; first compound 2 µM) | relative viability ([2]; first compound 0.6325 µM) | relative viability ([2]; first compound 2 µM) | relative viability ([2]; first compound 6.325 µM) | relative viability ([2]; first compound 20 µM) | relative viability ([3]; first compound 0.02 µM) | relative viability ([3]; first compound 0.06325 µM) | relative viability ([3]; first compound 0.2 µM) | relative viability ([3]; first compound 0.6325 µM) | relative viability ([3]; first compound 2 µM) | relative viability ([4]; first compound 0.1 µM) | relative viability ([4]; first compound 1 µM) | relative viability ([4]; first compound 3.162 µM) | relative viability ([4]; first compound 10 µM) | relative viability ([4]; first compound 0.3162 µM)
1 | NCI-H647 | 1.17 | 0.88 | 0.994 | 1.14 | 1.04 | 0.865 | 0.44 | 0.199 | 0.138 | 1.11 | 1.01 | 1.09 | 1.04 | 0.999 | 0.392 | 0.547 | 0.428 | 0.412 | –
2 | NCI-H520 | 0.994 | 0.876 | 0.844 | 0.925 | 0.991 | 0.604 | 0.664 | 0.28 | 0.2 | 1.14 | 1.03 | 1.02 | 1.06 | 0.975 | 0.279 | 0.385 | 0.456 | 0.306 | 0.326
3 | IA-LM | 0.522 | 0.465 | 0.654 | 0.61 | 0.587 | 0.426 | 0.26 | 0.134 | 0.0941 | 0.712 | 0.618 | 0.907 | 0.912 | 0.696 | 0.353 | 0.397 | 0.385 | 0.404 | 0.321
4 | LC-2-ad | 0.82 | 0.75 | 0.796 | 0.822 | 0.795 | 0.416 | 0.291 | 0.172 | 0.132 | 0.519 | 0.328 | 0.398 | 0.383 | 0.413 | 0.404 | 0.562 | 0.438 | 0.358 | 0.601
5 | EKVX | 1 | 1.01 | 0.856 | 1.05 | 0.994 | 0.222 | 0.256 | 0.16 | 0.17 | 0.939 | 0.923 | 0.916 | 0.82 | 0.96 | 0.395 | 0.392 | 0.482 | 0.386 | 0.422
6 | NCI-H2228 | 0.577 | 0.629 | 0.537 | 0.761 | 0.625 | 0.798 | 0.772 | 0.461 | 0.353 | 1.37 | 0.876 | 0.754 | 0.54 | 0.839 | 0.306 | 0.42 | 0.51 | 0.285 | 0.375
7 | NCI-H596 | 0.978 | 1.1 | 1.04 | 1.1 | 1.09 | 1.11 | 1.03 | 0.613 | 0.579 | 0.923 | 0.884 | 0.856 | 0.857 | 0.951 | 0.379 | 0.42 | 0.414 | 0.57 | 0.43
8 | NCI-H322M | 0.964 | 0.809 | 0.869 | 0.996 | 0.692 | 0.585 | 0.654 | 0.328 | 0.363 | 1.24 | 1.08 | 1.18 | 1.2 | 1.17 | 0.586 | 0.559 | 0.51 | 0.482 | 0.469
